Measured values: patent US11707447B1
“And” between values parts separate entries of the source, which are not always exact repeats. Equal values may be shown once. “Also recorded” adds a separate entry of the source.

How the values were obtained:
[1] = target: CHRM1 (Homo sapiens, UniProt P11229); assay: cell-based
[2] = target: HTR2B (5-HT2B) (Homo sapiens, UniProt P41595); assay: SAFETYscan calcium secondary messenger assay (agonist/antagonist mode); format: cell-based
[3] = target: OPRD1 (Homo sapiens, UniProt P41143); assay: SAFETYscan EFC-based cAMP secondary messenger assay (agonist/antagonist mode)
Sequence of OPRD1 (P41143 whole entry): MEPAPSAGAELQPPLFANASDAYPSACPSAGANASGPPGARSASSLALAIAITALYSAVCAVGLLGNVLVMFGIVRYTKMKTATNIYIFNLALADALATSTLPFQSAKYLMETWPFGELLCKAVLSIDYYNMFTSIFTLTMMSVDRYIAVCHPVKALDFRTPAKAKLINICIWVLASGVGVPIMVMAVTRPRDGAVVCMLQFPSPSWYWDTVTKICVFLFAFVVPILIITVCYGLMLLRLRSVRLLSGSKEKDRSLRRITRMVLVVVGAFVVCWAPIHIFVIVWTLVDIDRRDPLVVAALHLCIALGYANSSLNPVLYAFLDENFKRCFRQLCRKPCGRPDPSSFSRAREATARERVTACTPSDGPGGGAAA

[4] = Mouse pharmacokinetic (PK) evaluation of drug metabolism to psilocin; conditions: for AUC(0-inf): AUC0-inf (parent compound in plasma); for half-life: Apparent t1/2 (parent compound in plasma); for clearance: CL (parent compound); for MRT inf: MRT0-inf (parent compound)
[5] = target: ADRA2A (Homo sapiens, UniProt P08913); assay: SAFETYscan EFC-based cAMP secondary messenger assay (agonist/antagonist mode)
Sequence of ADRA2A (P08913 whole entry): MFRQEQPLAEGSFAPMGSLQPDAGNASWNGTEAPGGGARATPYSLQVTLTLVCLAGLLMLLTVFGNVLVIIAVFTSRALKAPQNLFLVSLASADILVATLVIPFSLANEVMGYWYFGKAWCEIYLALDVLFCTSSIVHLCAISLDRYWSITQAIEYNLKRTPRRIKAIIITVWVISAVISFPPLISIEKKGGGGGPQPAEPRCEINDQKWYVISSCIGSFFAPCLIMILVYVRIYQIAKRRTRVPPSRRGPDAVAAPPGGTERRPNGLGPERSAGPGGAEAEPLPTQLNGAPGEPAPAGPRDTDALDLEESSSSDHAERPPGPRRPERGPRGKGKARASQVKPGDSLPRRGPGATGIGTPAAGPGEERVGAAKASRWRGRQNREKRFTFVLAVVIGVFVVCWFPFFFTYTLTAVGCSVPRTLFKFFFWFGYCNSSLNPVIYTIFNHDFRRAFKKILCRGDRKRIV

[6] = target: CHRM2 (Homo sapiens, UniProt P08172); assay: as above
Sequence of CHRM2 (P08172 whole entry): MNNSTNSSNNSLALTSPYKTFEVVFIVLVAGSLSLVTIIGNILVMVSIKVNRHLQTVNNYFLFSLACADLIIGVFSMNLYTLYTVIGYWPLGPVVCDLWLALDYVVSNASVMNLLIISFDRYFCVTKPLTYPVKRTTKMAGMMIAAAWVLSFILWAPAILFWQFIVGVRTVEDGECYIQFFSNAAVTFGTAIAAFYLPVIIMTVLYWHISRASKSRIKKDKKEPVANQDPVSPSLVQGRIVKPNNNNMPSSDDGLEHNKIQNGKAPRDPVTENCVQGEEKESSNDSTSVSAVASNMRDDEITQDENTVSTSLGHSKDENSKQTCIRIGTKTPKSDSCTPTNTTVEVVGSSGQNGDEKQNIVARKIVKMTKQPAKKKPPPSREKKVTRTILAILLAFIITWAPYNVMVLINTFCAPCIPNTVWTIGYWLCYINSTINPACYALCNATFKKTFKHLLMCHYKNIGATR

[7] = target: DRD2S (Homo sapiens, UniProt P14416); assay: as above
Sequence of DRD2S (P14416 1-414 isoform P14416-2): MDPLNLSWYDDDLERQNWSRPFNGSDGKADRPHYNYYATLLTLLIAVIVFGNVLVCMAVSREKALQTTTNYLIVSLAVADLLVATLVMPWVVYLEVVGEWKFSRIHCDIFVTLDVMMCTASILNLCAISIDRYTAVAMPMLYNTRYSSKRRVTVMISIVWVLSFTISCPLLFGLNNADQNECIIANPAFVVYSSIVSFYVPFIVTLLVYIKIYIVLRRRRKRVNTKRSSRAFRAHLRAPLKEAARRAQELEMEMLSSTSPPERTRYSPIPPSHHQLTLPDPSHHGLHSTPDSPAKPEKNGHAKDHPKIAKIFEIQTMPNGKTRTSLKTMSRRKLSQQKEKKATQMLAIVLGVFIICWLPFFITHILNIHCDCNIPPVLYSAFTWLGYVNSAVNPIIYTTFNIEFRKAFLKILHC

[8] = target: DAT (Homo sapiens, UniProt Q01959); assay: Neurotransmitter transporter uptake assay (blocker)
Sequence of DAT (Q01959 whole entry): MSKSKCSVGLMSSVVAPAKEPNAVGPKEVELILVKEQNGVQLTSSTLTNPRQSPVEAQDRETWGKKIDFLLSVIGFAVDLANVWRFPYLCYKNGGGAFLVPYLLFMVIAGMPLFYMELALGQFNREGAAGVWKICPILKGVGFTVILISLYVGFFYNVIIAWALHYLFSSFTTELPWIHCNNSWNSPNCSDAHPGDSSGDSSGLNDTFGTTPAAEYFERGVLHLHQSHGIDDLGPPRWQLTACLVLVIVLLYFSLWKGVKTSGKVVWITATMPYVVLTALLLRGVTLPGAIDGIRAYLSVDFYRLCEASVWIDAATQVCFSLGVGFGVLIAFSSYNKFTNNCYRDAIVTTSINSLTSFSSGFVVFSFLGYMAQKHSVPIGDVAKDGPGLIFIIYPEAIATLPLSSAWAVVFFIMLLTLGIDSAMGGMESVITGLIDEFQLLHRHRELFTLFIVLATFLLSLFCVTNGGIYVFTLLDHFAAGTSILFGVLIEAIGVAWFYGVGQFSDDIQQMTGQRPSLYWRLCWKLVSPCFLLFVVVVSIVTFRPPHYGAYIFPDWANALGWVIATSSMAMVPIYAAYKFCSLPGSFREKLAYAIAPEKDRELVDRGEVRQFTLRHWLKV

[9] = target: T1, 5-HT2A receptor (Mus musculus, UniProt P35363); assay: Drug-induced Head Twitch Response (HTR) in mice; format: in vivo; conditions: 1 mg/kg i.p., 15-to-30-minute window after dosing, vs vehicle
T1 construct: tissue Charles River; host or cells: whole animal, C57BL/6-Elite mice (brain neurons)
T1 sequence (P35363 whole entry): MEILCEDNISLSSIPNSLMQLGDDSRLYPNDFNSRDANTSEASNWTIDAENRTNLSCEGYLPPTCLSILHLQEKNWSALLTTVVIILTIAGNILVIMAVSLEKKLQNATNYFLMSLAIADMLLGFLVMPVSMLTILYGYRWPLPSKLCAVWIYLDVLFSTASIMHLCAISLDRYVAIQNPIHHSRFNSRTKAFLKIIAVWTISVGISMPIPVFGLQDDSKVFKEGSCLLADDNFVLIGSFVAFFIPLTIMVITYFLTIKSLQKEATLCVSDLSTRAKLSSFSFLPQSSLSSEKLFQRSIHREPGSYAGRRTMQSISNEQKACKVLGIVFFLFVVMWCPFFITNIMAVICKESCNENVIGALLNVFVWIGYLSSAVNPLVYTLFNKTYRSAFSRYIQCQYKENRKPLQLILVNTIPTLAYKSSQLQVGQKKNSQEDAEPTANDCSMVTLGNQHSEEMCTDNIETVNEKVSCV

[10] = target: NET (Homo sapiens, UniProt P23975); assay: Neurotransmitter transporter uptake assay (blocker)
Sequence of NET (P23975 whole entry): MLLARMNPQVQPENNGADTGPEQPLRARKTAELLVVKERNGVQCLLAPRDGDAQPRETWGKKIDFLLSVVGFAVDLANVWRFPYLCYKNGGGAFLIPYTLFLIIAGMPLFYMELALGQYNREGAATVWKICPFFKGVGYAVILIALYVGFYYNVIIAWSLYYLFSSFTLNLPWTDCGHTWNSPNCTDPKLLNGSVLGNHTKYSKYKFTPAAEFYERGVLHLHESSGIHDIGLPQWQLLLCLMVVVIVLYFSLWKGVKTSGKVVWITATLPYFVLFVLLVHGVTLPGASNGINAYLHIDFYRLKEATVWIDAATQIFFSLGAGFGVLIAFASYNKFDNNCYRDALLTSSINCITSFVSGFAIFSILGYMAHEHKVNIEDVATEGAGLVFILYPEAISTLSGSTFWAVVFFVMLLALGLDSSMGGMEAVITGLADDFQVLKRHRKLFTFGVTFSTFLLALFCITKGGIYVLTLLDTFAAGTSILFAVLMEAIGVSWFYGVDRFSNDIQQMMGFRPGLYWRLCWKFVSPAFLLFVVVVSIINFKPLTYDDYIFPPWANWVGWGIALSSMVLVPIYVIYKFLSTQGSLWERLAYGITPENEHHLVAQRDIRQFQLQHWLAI

[11] = target: HTR1A (5-HT1A) (Homo sapiens, UniProt P08908); assay: SAFETYscan EFC-based cAMP secondary messenger assay (agonist/antagonist mode)
Sequence of HTR1A (5-HT1A) (P08908 whole entry): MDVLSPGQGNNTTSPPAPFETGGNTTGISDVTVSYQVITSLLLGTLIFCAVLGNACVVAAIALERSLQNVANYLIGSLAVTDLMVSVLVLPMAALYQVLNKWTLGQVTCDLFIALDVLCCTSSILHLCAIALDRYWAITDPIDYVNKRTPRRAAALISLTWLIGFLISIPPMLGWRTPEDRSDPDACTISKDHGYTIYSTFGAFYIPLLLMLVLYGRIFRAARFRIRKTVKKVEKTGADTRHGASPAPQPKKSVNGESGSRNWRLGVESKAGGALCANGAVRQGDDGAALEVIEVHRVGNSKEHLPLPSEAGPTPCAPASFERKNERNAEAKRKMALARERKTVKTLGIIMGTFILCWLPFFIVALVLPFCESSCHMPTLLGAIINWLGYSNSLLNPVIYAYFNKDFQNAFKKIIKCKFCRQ

[12] = male, C57Bl/6, mouse, plasma, iv, 1 mg/kg, 1 mg/kg i.v., individual mice
[13] = male, C57Bl/6, mouse, plasma, iv, 1 mg/kg, 1 mg/kg i.v., mean

Sequence of HTR2B (5-HT2B) (P41595 whole entry): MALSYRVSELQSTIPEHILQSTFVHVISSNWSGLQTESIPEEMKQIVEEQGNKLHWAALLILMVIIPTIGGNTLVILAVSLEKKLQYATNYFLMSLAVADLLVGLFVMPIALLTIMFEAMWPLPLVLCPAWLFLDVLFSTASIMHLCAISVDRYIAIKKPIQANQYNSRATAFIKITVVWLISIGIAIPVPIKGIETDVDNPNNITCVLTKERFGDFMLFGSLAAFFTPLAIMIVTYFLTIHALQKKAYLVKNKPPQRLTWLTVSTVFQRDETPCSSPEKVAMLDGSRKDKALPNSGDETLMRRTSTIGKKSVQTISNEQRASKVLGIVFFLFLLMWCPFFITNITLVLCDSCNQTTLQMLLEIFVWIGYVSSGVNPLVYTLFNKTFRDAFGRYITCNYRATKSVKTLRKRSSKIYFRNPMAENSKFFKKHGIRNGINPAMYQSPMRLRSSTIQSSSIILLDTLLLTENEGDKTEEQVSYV
Sequence of CHRM1 (P11229 whole entry): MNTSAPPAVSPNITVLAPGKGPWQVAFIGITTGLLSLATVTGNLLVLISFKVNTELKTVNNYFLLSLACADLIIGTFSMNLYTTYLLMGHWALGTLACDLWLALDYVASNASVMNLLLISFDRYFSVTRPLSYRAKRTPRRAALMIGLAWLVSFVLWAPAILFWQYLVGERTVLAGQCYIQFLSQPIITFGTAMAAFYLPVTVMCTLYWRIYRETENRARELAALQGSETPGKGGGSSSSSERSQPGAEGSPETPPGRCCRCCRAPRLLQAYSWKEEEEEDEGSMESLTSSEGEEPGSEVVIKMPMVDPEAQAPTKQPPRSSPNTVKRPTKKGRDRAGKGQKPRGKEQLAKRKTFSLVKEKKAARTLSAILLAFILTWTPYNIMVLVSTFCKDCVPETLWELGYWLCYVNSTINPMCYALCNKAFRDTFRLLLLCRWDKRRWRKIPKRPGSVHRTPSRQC

With `CN(C)CCc1c[nH]c2cccc(OC(=O)SCc3ccccc3)c12` [E(VI)] the EC50 ([1]; agonist mode) was greater than 100 µM, the IC50 ([1]; antagonist mode) was 15.1 µM and the EC50 [2] was greater than 100 µM. For the same compound, the IC50 [2] was 0.0857 µM, the EC50 [3] was 28.5 µM and the IC50 [3] was greater than 100 µM. For the same compound, the “Plasma concentration of administered (parent) compound” value (“Plasma concentration of administered” below) ([4]; 1 mg/kg i.v., 5 min, individual mice) was 3.20 ng/mL and 59.0 ng/mL and 11.1 ng/mL, the “Plasma concentration of administered” value ([4]; 1 mg/kg i.v., 0.25 h, individual mice) was 72.1 ng/mL and 110 ng/mL and 7.79 ng/mL and the “Plasma concentration of administered” value ([4]; 1 mg/kg i.v., 0.5 h, individual mice) was 13.1 ng/mL and 9.29 ng/mL and 1.03 ng/mL. The “Plasma concentration of administered” value ([4]; 1 mg/kg i.v., 1 h, individual mice) was 5.84 ng/mL and No Peak, the “Plasma concentration of administered” value ([4]; 1 mg/kg i.v., 2 h, individual mice) was 0.594 ng/mL and No Peak and the “Plasma concentration of administered” value ([4]; 1 mg/kg i.v., 4 h, individual mice) was “BLQ (2×) and No Peak”. The “Plasma concentration of administered” value ([4]; 1 mg/kg i.v., 6 h, individual mice) was “No Peak (2×) and BLQ”, the “Plasma concentration of administered” value ([4]; 1 mg/kg i.v., 8 h, individual mice) was “No Peak” and the “AUC0-inf (parent compound in plasma)” value ([4]; 1 mg/kg i.v., individual mice) was 0.0355 µg·h/mL. The “AUC0-tlast (parent compound in plasma)” value ([4]; 1 mg/kg i.v., individual mice) was 0.0204 µg·h/mL and 0.0352 µg·h/mL and 0.0034 µg·h/mL, the “AUC0-tlast/Dose (parent compound in plasma)” value ([4]; 1 mg/kg i.v., individual mice) was 20.4 kg·ng·h/mL/mg and 35.2 kg·ng·h/mL/mg and 3.40 kg·ng·h/mL/mg and the “Apparent t1/2 (parent compound in plasma)” value ([4]; 1 mg/kg i.v., individual mice) was 21.9 min. For the same compound, the “C0 (parent compound in plasma)” value ([4]; 1 mg/kg i.v., individual mice) was 3.20 ng/mL and 59.0 ng/mL and 13.2 ng/mL, the “CL (parent compound)” value ([4]; 1 mg/kg i.v., individual mice) was 28.159 L/h/kg and the “MRT0-inf (parent compound)” value ([4]; 1 mg/kg i.v., individual mice) was 21.6 min. For the same compound, the “Vss (parent compound)” value ([4]; 1 mg/kg i.v., individual mice) was 23.899 L/kg and 10.146 L/kg, the “AUC0-tlast/Dose (parent compound in plasma)” value ([4]; 1 mg/kg i.v., mean ± SD) was 19.7 ± 15.9 kg·ng·h/mL/mg and the “detection of administered compound in plasma (in words)” value ([4]; 1 mg/kg oral) was “neither B(II) nor E(VI) were detected in plasma”. The “Plasma concentration of psilocin” value ([4]; 1 mg/kg oral of administered compound, 8 h, individual mice) was “BLQ”, the “Plasma concentration of psilocin” value ([4]; 1 mg/kg oral of administered compound, 24 h, individual mice) was “No Peak” and the “Plasma concentration of psilocin” value ([4]; 3 mg/kg oral of administered compound, 24 h, individual mice) was “No Peak (2×) and BLQ”. For the same compound, the “Plasma concentration of psilocin” value ([4]; 10 mg/kg oral of administered compound, 24 h, individual mice) was “BLQ”, the concentration at 5 min ([4]; male, C57Bl/6, mouse, plasma, intravenous, 1 mg/kg, Plasma concentration of administered (parent) compound, 1 mg/kg i.v., 5 min, mean ± SD) was 24.4 ± 30.2 ng/mL and the concentration at 0.25 h ([4]; male, C57Bl/6, mouse, plasma, intravenous, 1 mg/kg, Plasma concentration of administered (parent) compound, 1 mg/kg i.v., 0.25 h, mean ± SD) was 63.3 ± 51.7 ng/mL. The concentration at 0.5 h ([4]; male, C57Bl/6, mouse, plasma, intravenous, 1 mg/kg, Plasma concentration of administered (parent) compound, 1 mg/kg i.v., 0.5 h, mean ± SD) was 7.81 ± 6.17 ng/mL, the concentration at 1 h ([4]; male, C57Bl/6, mouse, plasma, intravenous, 1 mg/kg, Plasma concentration of administered (parent) compound, 1 mg/kg i.v., 1 h, individual mice) was 3.14 ng/mL and the concentration at 1 h ([4]; male, C57Bl/6, mouse, plasma, intravenous, 1 mg/kg, Plasma concentration of administered (parent) compound, 1 mg/kg i.v., 1 h, mean) was 4.49 ng/mL. For the same compound, the concentration at 2 h ([4]; male, C57Bl/6, mouse, plasma, intravenous, 1 mg/kg, Plasma concentration of administered (parent) compound, 1 mg/kg i.v., 2 h, individual mice) was 0.776 ng/mL, the concentration at 2 h ([4]; male, C57Bl/6, mouse, plasma, intravenous, 1 mg/kg, Plasma concentration of administered (parent) compound, 1 mg/kg i.v., 2 h, mean) was 0.685 ng/mL and the AUC(0-inf) [4, 12] was 0.0208 µg·h/mL. It also gave an AUC(0-inf) [4, 13] of 0.0282 µg·h/mL, an AUC(0-t) ([4]; male, C57Bl/6, mouse, plasma, iv, 1 mg/kg, AUC0-tlast (parent compound in plasma), 1 mg/kg i.v., mean ± SD) of 0.0197 ± 0.0159 µg·h/mL and a half-life [4, 12] of 22.9 min. It also gave a half-life ([4]; male, C57Bl/6, mouse, plasma, iv, 1 mg/kg, 1 mg/kg i.v., mean ± SD) of 22.4 ± 0.708 min, a C0 ([4]; male, C57Bl/6, mouse, plasma, iv, 1 mg/kg, C0 (parent compound in plasma), 1 mg/kg i.v., mean ± SD) of 25.1 ± 29.7 ng/mL and a clearance [4, 12] of 48.1 L/h/kg. It also gave a clearance [4, 13] of 38.1 L/h/kg, an MRT inf [4, 12] of 29.8 min and an MRT inf [4, 13] of 25.7 min. The Vd ([4]; male, C57Bl/6, mouse, plasma, iv, 1 mg/kg, Vss (parent compound), 1 mg/kg i.v., mean) was 17 L/kg, the “detectability of administered compound in plasma (in words)” value ([4]; oral vs i.v. dosing) was “did not yield any detectable levels of E(VI); also recorded: never detected at any timepoint” and the EC50 [5] was greater than 100 µM. The IC50 [5] was 19.8 µM, the EC50 [6] was greater than 100 µM and the IC50 [6] was 51.2 µM. For the same compound, the EC50 [7] was greater than 100 µM, the IC50 [7] was 13.3 µM and the IC50 [8] was 1 µM. The “Head Twitch Response (in words)” value [9] was “Elevated incidences of HTR; also recorded: elevated response was observed in mice treated with E(VI) compared to B(II)”, the IC50 [10] was 9.25 µM and the EC50 [11] was 11.4 µM. It also gave an IC50 [11] greater than 100 µM.
